# Experiment: HILIC, Merck SeQuant ZIC-HILIC, 25 °C, 0.25 mL/min; A: water + 16 mM ammonium formate; B: acetonitrile + 0.1% formic acid, pH 3; gradient (min/%B) 0/97 2/97 10/70 15/10 17/10 18/97 25/97
# Details: stereoisomer not certain
row,Compound,LC retention time [min]
1,NC(=O)CCCCC1CCSS1 (stereo not drawn) [LIPOAMIDE],1.79
2,CCC(C)C(=O)C(=O)O (stereo not drawn) [3-METHYL-2-OXOVALERATE],1.73
3,CC(=O)OCC[N+](C)(C)C [ACETYLCHOLINE+C2H2O4],10
4,CCCCCCCCC=CCCCCCCCC(=O)OCC(O)COP(=O)(O)OCCN (stereo not drawn) [18-1_LysoPE],10.3
5,CC(CCC(=O)O)C1CCC2C3C(=O)CC4CC(O)CCC4(C)C3CC(=O)C12C (stereo not drawn) [5b-cholanic acid-3a-OL-7-12-DIONE],1.92
6,NCCc1c[nH]c2ccccc12 [TRYPTAMINE],10.5
7,CC(=O)C1(O)CCC2C3CCC4=CC(=O)CCC4(C)C3C(O)CC21C (stereo not drawn) [21-Deoxycortisol],1.68
8,NC(CS)C(=O)NCC(=O)O (stereo not drawn) [CYS-GLY_2M],16.3
9,C[n+]1cccc(C(=O)[O-])c1 [TRIGONELLINE],13
10,CS(=N)(=O)CCC(N)C(=O)O (stereo not drawn) [METHIONINE SULFOXIMINE],14.4
11,NCCc1cc(O)c(O)cc1O [6-HYDROXYDOPAMINE],12.6
12,"Oc1cc(O)c2c(c1)OC(c1ccc(O)c(O)c1)C(O)C2 (single isomer, unassigned; (+)) [(+)-Catechin hydrate]",9.95
13,CC(C)(CCC(=O)O)C(=O)O [2-2-Dimethylglutaric acid],2.1
14,CC(C)CC(=O)OC(CC(=O)[O-])C[N+](C)(C)C [Isovaleryl-L-carnitine],10.2
15,O=CC(O)CO (stereo not drawn) [GLYCERALDEHYDE],2.77
16,O=C(O)CCCCCCC(=O)O [SUBERATE],1.91
17,CC(=O)NC(CS)C(=O)O (stereo not drawn) [N-ACETYLCYSTEINE],3.43
18,CCCCCCCCCCCCCCCC(O)C(N)CO (stereo not drawn) [SPHINGANINE],9.91
19,CC(=O)OCC(N)C(=O)O (stereo not drawn) [O-ACETYLSERINE],12.4
20,COC(=O)CCCCC(=O)O [mono-Methyl adipate],1.71
21,CC(CN)C(=O)O (stereo not drawn) [AMINOISOBUTANOATE],13.4
22,C=C(C)CCOP(=O)(O)OP(=O)(O)O [ISOPENTENYL PYROPHOSPHATE],2.11
23,NCCCCC(=O)O [5-AMINOPENTANOATE],12.6
24,COC(=O)CCCN [METHYL 4-AMINOBUTYRATE-CH2],13.4
25,O=CNCC(=O)O [N-FORMYLGLYCINE],5.34

row,Compound,LC retention time [min]
1,O=C(O)c1cncc(O)c1 [5-Hydroxynicotinic acid],6.4
2,CCCCCCCCC=CCCCCCCCC(=O)OCC(CO)OC(=O)CCCCCCCC=CCCCCCCCC (stereo not drawn) [1-2-dioleoyl-sn-glycerol],1.49
3,O=C(O)CC(Cc1ccccc1)C(=O)O (racemic) [dl-benzylsuccinic acid],2.15
4,NCCCC(=O)O [GAMMA-AMINOBUTYRATE],13.5
5,O=C(O)CCCCCCCCCCCO [OMEGA-HYDROXYDODECANOATE],1.7
6,COc1cc(CCN)ccc1O [3-METHOXYTYRAMINE],11
7,NCC(O)c1ccc(O)cc1 (stereo not drawn) [P-OCTOPAMINE],12.4
8,NCCCCN [PUTRESCINE],17.4
9,C[N+](C)(C)CCCCC(N)C(=O)[O-] (stereo not drawn) [N-N-N-TRIMETHYLLYSINE],16.5
10,O=C(CO)COP(=O)(O)O [DIHYDROXYACETONE PHOSPHATE],14
11,NCCc1ccccc1 [PHENETHYLAMINE],10.2
12,O=C(O)C(=O)Cc1ccccc1 [PHENYLPYRUVATE],2.18
13,CNC(CCC(=O)O)C(=O)O (stereo not drawn) [N-METHYLGLUTAMATE],13.9
14,NC(C(=O)O)c1ccccc1 (stereo not drawn) [2-Phenylglycine],11.8
15,CCCCCCCCCCCCCCCC(=O)OCC(O)COP(=O)([O-])OCC[N+](C)(C)C (stereo not drawn) [16-0_LysoPC],11.2
16,CCCCCCCCCCCCCCCCCC(=O)OCC(O)COP(=O)(O)OCCN (stereo not drawn) [18-0_LysoPE],10.2
17,CC(=O)N[C@@H]1[C@@H](O)[C@H](O)[C@@H](CO)O[C@H]1N [2-ACETAMIDO-2-DEOXY-BETA-D-GLUCOSYLAMINE],14.5
18,CCCCCCCCCCCCCCCCCCOCC(O)COP(=O)([O-])OCC[N+](C)(C)C (stereo not drawn) [C18_LysoPAF],11.3
19,O=C1OC(C(O)CO)C(O)C1O [L-GULONOLACTONE],10.3
20,CC(CCC(=O)O)C1CCC2C3CCC4CC(O)CCC4(C)C3CC(O)C12C (stereo not drawn) [deoxycholic acid],1.98
21,CCCCCCCCCC(=O)OCC(COP(=O)([O-])OCC[N+](C)(C)C)OC(=O)CCCCCCCCC (stereo not drawn) [DIDECANOYL-GLYCEROPHOSPHOCHOLINE],10.6
22,O=C(O)CCCCCCCCCO [10-HYDROXYDECANOATE],1.75
23,OCCNCCO [DIETHANOLAMINE],13.1
24,O=C/C=C/c1ccccc1 [Trans-Cinnamaldehyde],1.57

# Second part, the compound after the results:
row,LC retention time [min],Compound
1,11.7,NC(=O)[C@@H](N)Cc1c[nH]c2ccccc12 [L-TRYPTOPHANAMIDE]
2,9.3,NC(Cc1cc(I)c(Oc2ccc(O)cc2)c(I)c1)C(=O)O [3-5-DIIODO-L-THYRONINE]
3,13.9,CN(CC(=O)O)C(=N)N [CREATINE]
4,1.77,O=Cc1ccc(O)cc1 [4-HYDROXYBENZALDEHYDE]
5,14.3,CC(C)(COP(=O)(O)OP(=O)(O)OCC1OC(n2cnc3c(N)ncnc32)C(O)C1OP(=O)(O)O)C(O)C(=O)NCCC(=O)NCCS (stereo not drawn) [COENZYME A]
6,15.7,Nc1ncnc2c1ncn2C1CC(O)C(COP(=O)(O)OP(=O)(O)OP(=O)(O)O)O1 (stereo not drawn) [DEOXYADENOSINE TRIPHOSPHATE]
7,15,O=c1ccn(C2OC(COP(=O)(O)OP(=O)(O)O)C(O)C2O)c(=O)[nH]1 (stereo not drawn) [URIDINE 5'-DIPHOSPHATE]
8,12.8,Cn1cnc2c(ncn2C2OC(CO)C(O)C2O)c1=N (stereo not drawn) [1-METHYLADENOSINE]
9,10.8,Nc1nc2nc[nH]c2c(=O)[nH]1 [GUANINE]
10,2.16,CC(=O)N[C@@H](Cc1ccc(O)cc1)C(=O)O [N-Acetyl-L-tyrosine]
11,15.9,C[S+](CCC(N)C(=O)[O-])CC1OC(n2cnc3c(N)ncnc32)C(O)C1O (stereo not drawn) [S-ADENOSYLMETHIONINE]
12,2.15,CC(=O)NC(Cc1c[nH]c2ccccc12)C(=O)O (stereo not drawn) [N-ACETYLTRYPTOPHAN]
13,2.21,CN1C(=O)CCC1c1cccnc1 (stereo not drawn) [Cotinine]
14,10.5,O=C1OC(C(O)CO)C(O)=C1O (stereo not drawn) [ASCORBATE]
15,10.4,O=C(O)c1cc(=O)c2cccc(O)c2[nH]1 [XANTHURENATE]
16,2.12,Nc1ccc(C(=O)O)cc1 [4-AMINOBENZOATE]
17,10.4,Cc1ncc(CO)c(CO)c1O [PYRIDOXINE]
18,8.49,COC1C(O)C(CO)OC1n1cnc2c(=O)[nH]cnc21 (stereo not drawn) [2'-O-Methylinosine]
19,10.6,O=C1CC(C(=O)O)NC(=O)N1 (stereo not drawn) [DIHYDROOROTATE]
20,11.1,N[C@@H](Cc1ccc(O)c([N+](=O)[O-])c1)C(=O)O [3-NITRO-L-TYROSINE]
21,12.5,NCCc1ccc(O)c(O)c1 [DOPAMINE]
22,15.9,Nc1ccn(C2OC(COP(=O)(O)OP(=O)(O)OP(=O)(O)O)C(O)C2O)c(=O)n1 (stereo not drawn) [CYTIDINE TRIPHOSPHATE]

row,LC retention time [min],Compound
1,2.08,O=C(O)c1ccc[nH]1 [PYRROLE-2-CARBOXYLATE]
2,10.3,O=c1[nH]cnc2c1ncn2C1OC(CO)C(O)C1O (stereo not drawn) [INOSINE]
3,2.19,Cn1c(=O)c2[nH]c(=O)[nH]c2n(C)c1=O [1-3-Dimethyluric acid]
4,16,NCCC(=O)NC(Cc1cnc[nH]1)C(=O)O (stereo not drawn) [CARNOSINE]
5,15.2,Nc1nc2c(ncn2C2OC(COP(=O)(O)OP(=O)(O)OC3OC(CO)C(O)C(O)C3O)C(O)C2O)c(=O)[nH]1 (stereo not drawn) [GUANOSINE DIPHOSPHATE MANNOSE]
6,2.14,O=C(O)c1ccc(O)c(O)c1 [3-4-DIHYDROXYBENZOATE]
7,17,NC(CO)Cc1cnc[nH]1 (stereo not drawn) [HISTIDINOL]
8,5.96,Nc1ccc(C(=O)NCC(=O)O)cc1 [Aminohippuric acid]
9,4.88,COc1cc(C(O)C(=O)O)ccc1O (stereo not drawn) [3-METHOXY-4-HYDROXYMANDELATE]
10,2.13,CC1NC(=O)NC1CCCCCC(=O)O (stereo not drawn) [DETHIOBIOTIN]
11,15.2,Nc1ccn(C2CC(O)C(COP(=O)([O-])OP(=O)([O-])[O-])O2)c(=O)n1 (stereo not drawn) [DEOXYCYTIDINE-DIPHOSPHATE]
12,2.06,C=CC1=C(C)C(C=c2[nH]c(=Cc3[nH]c(C=C4NC(=O)C(C)=C4C=C)c(C)c3CCC(=O)O)c(CCC(=O)O)c2C)=NC1=O [BILIVERDIN]
13,13.4,NC(Cc1ccc(O)c(O)c1)C(=O)O [3-4-DIHYDROXY-L-PHENYLALANINE]
14,14.7,Nc1ncnc2c1ncn2C1OC(COP(=O)(O)OP(=O)(O)OC2OC(CO)C(O)C(O)C2O)C(O)C1O (stereo not drawn) [ADP-GLUCOSE]
15,11.2,O=c1[nH]c(=O)c2[nH]c(=O)[nH]c2[nH]1 [URATE]
16,11.4,NC(Cc1c[nH]c2ccccc12)C(=O)O (stereo not drawn) [TRYPTOPHAN]
17,9,O=c1ccn(C2OC(CO)C(O)C2O)c(=O)[nH]1 (stereo not drawn) [URIDINE]
18,13.6,Nc1ccn(C2OC(CO)C3OP(=O)(O)OC32)c(=O)n1 (stereo not drawn) [CYTIDINE 2'-3'-CYCLIC PHOSPHATE]
19,2.14,Cn1c(=O)[nH]c2nc[nH]c2c1=O [1-Methylxanthine]
20,8.82,O=C(C=Cc1ccc(O)c(O)c1)OC(Cc1ccc(O)c(O)c1)C(=O)O (stereo not drawn) [ROSMARINATE]
21,13.3,Nc1ncnc2c1ncn2C1CC(O)C(COP(=O)(O)O)O1 (stereo not drawn) [DEOXYADENOSINE MONOPHOSPHATE]
22,8.77,O=c1[nH]cnc2nc[nH]c12 [HYPOXANTHINE]

# Source: the RepoRT retention time repository
